# Source: article PMC5833004 (ACS Central Science, 2018)
# “Also recorded” adds a separate entry of the source.
# Tests used:
# [1] = biological target: GFP-fused multimerized CBP bromodomain (Homo sapiens, UniProt Q92793); assay: FRAP assay in U2OS cells, GFP-fused CBP bromodomain; type: cell-based; details: compound 1 μM, 2.5 μM SAHA
# c-MYC mRNA = assay: RT-qPCR mRNA transcription in LP1 cells; type: cell-based, human; details: 6 h incubation, dose-response
# LP1 cells = assay: Cell proliferation, resazurin assay; type: cell-based, human; details: 72 h or 144 h
# [2] = test system: MRC5 nontransformed fibroblast; assay: Cell proliferation, resazurin assay; type: cell-based; details: Homo sapiens, MRC5, 72 h, read-out: GI50 MRC5
# IRF4 mRNA = assay: RT-qPCR mRNA transcription in LP1 cells; type: cell-based, human; details: 6 h incubation, dose-response
# bromodomain of CBP = bromodomain of CBP (Homo sapiens, UniProt Q92793); assay: Alpha Screen assay; type: binding
# HL-60 cells = assay: Cell proliferation, resazurin assay; type: cell-based; details: 144 h
# Kasumi cells = assay: Cell proliferation, resazurin assay; type: cell-based, human; details: 72 h or 144 h
smiles,measurement,setting,value
CCOc1ccc(C(C)=O)cc1NC(=O)Cc1csc(-c2ccc(OC)c(OC)c2)n1 [Compound 6],displacement of GFP-fused CBP bromodomain from chromatin (FRAP),[1],significant displacement
CCOc1ccc(C(C)=O)cc1NC(=O)c1ccc(C)c(NC(=O)c2ccco2)c1 [Compound 7],displacement of GFP-fused CBP bromodomain from chromatin (FRAP),[1],significant displacement
CCOc1ccc(C(C)=O)cc1-c1ccc(N2CCCS2(=O)=O)cc1C [Compound 13],displacement of GFP-fused CBP bromodomain from chromatin (FRAP),[1],significant displacement
CCOc1ccc(C(C)=O)cc1NC(=O)c1cc(NC(C)=O)cc(NC(=O)c2ccco2)c1 [Compound 16],c-MYC mRNA level,c-MYC mRNA,reduced
same,proliferation of LP1 cells,LP1 cells,selectively inhibited the proliferation
same,GI50,[2],> 20 µM
same,displacement of GFP-fused CBP bromodomain from chromatin (FRAP),[1],significant displacement; also recorded: strongest effect
same,IRF4 mRNA level,IRF4 mRNA,reduced
same,affinity for CBP bromodomain higher by a factor with respect to BRD4(1),bromodomain of CBP,"more than 10,000"
same,proliferation of HL-60 cells,HL-60 cells,selectively inhibited the proliferation
same,proliferation of Kasumi cells,Kasumi cells,selectively inhibited the proliferation
CCOc1ccc(C(C)=O)cc1NC(=O)c1cc(NC(C)=O)cc(NC(=O)c2ccc(OC)c(OC)c2)c1 [Compound 17],displacement of GFP-fused CBP bromodomain from chromatin (FRAP),[1],significant displacement
